Results reported in patent US20220395497A1, “Cancer Treatment Using Camptothecin Derivatives” (priority 2019, published 2022).

Tested on: adults with recurrence of glioblastoma multiforme (GBM)
Assay: Phase 2 open-label study of IV AR-67 (7.5 mg/m2 once daily for 5 days, 21-day cycle) in recurrent GBM: tumor response (MRI, MacDonald criteria), PFS, disposition. Cohort 1 = not received or not recently failed (>90 days) bevacizumab; Cohort 2 = recently (<90 days) failed bevacizumab
Format: in vivo, human
Procedure: The primary objective in the rapid bevacizumab failure group (<90 days) was to determine the 2-month PFS.
This solution was reconstituted in dextrose 5% in water to a final concentration between 0.06-0.6 mg/mL Drug (7.5 mg/m2) was to be given until the onset of toxicity requiring discontinuation or tumor progression. Tumor response was assessed=14d after every second cycle and before every third cycle using MRI.

CC[C@@]1(O)C(=O)OCc2c1cc1n(c2=O)Cc2c-1nc1ccc(O)cc1c2[Si](C)(C)C(C)(C)C [AR-67, (205)-7-tert-butyldimethysilyl-10-hydroxycamptothecin]
Best Overall Response: Complete Response, patients (All Patients, N = 46): 0 | Best Overall Response: Progressive Disease, patients (All Patients, N = 46): 31 | Response at Study Completion or Discontinuation: Complete Response, patients (All Patients, N = 46): 0 | Response at Study Completion or Discontinuation: Progressive Disease, patients (All Patients, N = 46): 39 | Response at Study Completion or Discontinuation: Stable Disease, patients (All Patients, N = 46): 2 | Withdrawal due to Adverse event, patients (%) (All Patients, N = 46): 2.2% | Withdrawal due to Death, patients (%) (All Patients, N = 46): 6.5% | Withdrawal due to Disease progression, patients (%) (All Patients, N = 46): 69.6% | Best Overall Response: Complete Response, patients (Cohort 1, N = 31): 0 | Best Overall Response: Partial Response, patients (Cohort 1, N = 31): 3 | Best Overall Response: Progressive Disease, patients (Cohort 1, N = 31): 20 | Best Overall Response: Stable Disease, patients (Cohort 1, N = 31): 5 | Response at Study Completion or Discontinuation: Complete Response, patients (Cohort 1, N = 31): 0 | Response at Study Completion or Discontinuation: Partial Response, patients (Cohort 1, N = 31): 1 | Response at Study Completion or Discontinuation: Progressive Disease, patients (Cohort 1, N = 31): 28 | Response at Study Completion or Discontinuation: Stable Disease, patients (Cohort 1, N = 31): 0 | Withdrawal due to Death, patients (%) (Cohort 1, N = 31): 6.5% | Withdrawal due to Disease progression, patients (%) (Cohort 1, N = 31): 77.4% | Best Overall Response: Complete Response, patients (Cohort 2, N = 13): 0 | Best Overall Response: Partial Response, patients (Cohort 2, N = 13): 0 | Best Overall Response: Progressive Disease, patients (Cohort 2, N = 13): 10 | Response at Study Completion or Discontinuation: Complete Response, patients (Cohort 2, N = 13): 0 | Response at Study Completion or Discontinuation: Partial Response, patients (Cohort 2, N = 13): 0 | Response at Study Completion or Discontinuation: Progressive Disease, patients (Cohort 2, N = 13): 10 | Response at Study Completion or Discontinuation: Stable Disease, patients (Cohort 2, N = 13): 2 | Withdrawal due to Adverse event, patients (%) (Cohort 2, N = 13): 7.7% | Withdrawal due to Death, patients (%) (Cohort 2, N = 13): 7.7% | Withdrawal due to Disease progression, patients (%) (Cohort 2, N = 13): 53.8% | efficacy, reason for study termination (in vivo): lack of efficacy | outcome (rGBM patients who failed bevacizumab within 90 days of last dose): fared poorly | patients who surpassed the PFS6 endpoint (rGBM patients who had never taken bevacizumab, or had not failed bev treatment within 90 days of last dose): 20%
